Measurements as given in patent US6737383B1, “Herbicidal oxadiazolidines” (priority 1999, dated 2004).

Legend:
sourgrass = test: Test D sourgrass; format: in vivo, Trichachne insularis; conditions: Preemergence, 0 to 100 scale
From the text: Seeds, tubers, or plant parts of Alexandergrass (Brachiaria plantaginea), bermuda-grass (Cynodon dactylon), common pursiane (Portulaca oleracea), common ragweed (Ambrosia elatior), common groundsel (Senecio vulgaris), dallisgrass (Paspalum dilatatum), goosegrass (Eleusine indica), guineagrass (Panicum maximum), itchgrass (Rottboellia exaltata), Johnson grass (Sorghum halepense), large crabgrass (Digitaria sanguinalis), pitted morningglory (Ipomoea lacunosa), purple nutsedge (Cyperus rotundus), sandbur (Cenchrus echinatus), sourgrass (Trichachne insularis), Spanishneedles (Bidens bipinnata), surinam grass (Brachiaria decumbens) and tall mallow (Malva sylvestris) were planted into greenhouse pots of flats containing greenhouse planting medium. Plant species were grown in separate pots or individual compartments. Preemergence applications were made within one day of planting the seed or plant part.
Test chemicals were formulated in a non-phytotoxic solvent mixture which included a surfactant and applied preemergence to the surface of the pot containing seeds in a sandy loam soil. Untreated control pots and treated pots were placed in the greenhouse for growth and visually evaluated for injury 14 to 21 days after herbicide application. Plant response ratings, summarized in Table C, are based on a 0 to 100 scale where 0 is no injury and 100 is complete control. A dash (−) response means no test result.

field bindweed = test: Test C postemergence field bindweed; format: in vivo, Convolvulus arvensis; conditions: 0 to 100 scale, 0 no effect, 100 complete control
Method: (§1) Compounds evaluated in this test were formulated in a non-phytotoxic solvent mixture which included a surfactant and applied to plants that were grown for various periods of time before treatment (postemergence application). A mixture of sandy loam soil and greenhouse potting mix in a 60:40 ratio was used for the postemergence test.
(§2) Plantings of these crops and weed species were adjusted to produce plants of appropriate size for the postemergence test. All plant species were grown using normal greenhouse practices. Crop and weed species include arrowleaf sida (Sida rhombifolia), barnyardgrass (Echinochloa crus-galli), cocklebur (Xanthium strumarium), common ragweed (Ambrosia elatior), corn (Zea mays), cotton (Gossypium hirsutum), eastern black nightshade (Solanum ptycanthum), fall panicum (Panicum dichotomiflorum), field bindweed (Convolvulus arvensis), giant foxtail (Setaria faberii), hairy beggarticks (Bidens pilosa), ivyleaf morningglory (Ipomoea hederacea), johnsongrass (Sorghum halepense), ladysthumb smartweed (Polygonum persicaria), lambsquarters (Chenopodium album), large crabgrass (Digitaria sanguinalis), purple nutsedge (Cyperus rotundus), redroot pigweed (Amaranthus retroflexus), soybean (Glycine max), surinam grass (Brachiaria decumbens), velvetleaf (Abutilon theophrasti) and wild poinsettia (Euphorbia heterophylla).
(§3) Treated plants and untreated controls were maintained in a greenhouse for approximately 14, to 21 days, after which all treated plants were compared to untreated controls and visually evaluated. Plant response ratings, summarized in Table C, were based upon a 0 to 100 scale where 0 was no effect and 100 was complete control. A dash response (−) means no test result.

redroot pigweed = test: Test C postemergence redroot pigweed; format: in vivo, Amaranthus retroflexus; conditions: 0 to 100 scale, 0 no effect, 100 complete control
Method: as §1, §2, §3

hairy beggarticks = test: Test C postemergence hairy beggarticks; format: in vivo, Bidens pilosa; conditions: 0 to 100 scale, 0 no effect, 100 complete control
Method: as §1, §2, §3

velvetleaf = test: Test C postemergence velvetleaf; format: in vivo, Abutilon theophrasti; conditions: 0 to 100 scale, 0 no effect, 100 complete control
In short: (§4)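 Activity is expressed as percent-style visual control, 0 (no effect) to 100 (complete control), assessed approximately 14 to 21 days after application, relative to untreated plants. Application was postemergence, using a non-phytotoxic solvent formulation with surfactant.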

arrowleaf sida = test: Test C postemergence arrowleaf sida; format: in vivo, Sida rhombifolia; conditions: 0 to 100 scale, 0 no effect, 100 complete control
In short: as §4

Green foxtail = test: Test D green foxtail; format: in vivo
In short: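 Greenhouse pots, sandy loam, single species per pot. Preemergence tests: soil-surface application ≤1 day after planting. Compound formulated in non-phytotoxic solvent with surfactant. Visual rating 14–21 DAT, scale 0–100.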

wild poinsettia = test: Test C postemergence wild poinsettia; format: in vivo, Euphorbia heterophylla; conditions: 0 to 100 scale, 0 no effect, 100 complete control
In short: as §4

[1] = Rate 64 g/ha, 0 no injury, 100 complete control
[2] = Rate 64 g/ha, Preemergence; 0 to 100 scale, 0 no injury, 100 complete control
[3] = Rate 125 g/ha, Preemergence; 0 to 100 scale, 0 no injury, 100 complete control

Compound: Cc1ccc(-n2c(=O)on(C(=O)N(c3ccc(F)cc3F)C(C)C)c2=O)c(C)c1 [Compound 24]
- Plant response rating, Sourgrass (sourgrass; Rate 32 g/ha, 0 no injury, 100 complete control): 40
- Plant response rating, Sourgrass (sourgrass; [1]): 85
- Sourgrass plant response rating (sourgrass; [1]): 100
- Sourgrass plant response rating (sourgrass; Rate 125 g/ha, 0 no injury, 100 complete control): 100
- Plant response rating, Sourgrass (sourgrass; Rate 250 g/ha): 100
- Plant response rating, Sourgrass (sourgrass; Rate 500 g/ha): 100

Compound: CC(C)N(C(=O)n1oc(=O)n(C(C)C)c1=O)c1ccccc1 [Compound 113]
- Plant response rating Field bindweed (field bindweed; Rate 140 g/ha): 0
- Plant response rating Field bindweed (field bindweed; Rate 280 g/ha): 0
- Plant response rating Field bindweed (field bindweed; Rate 560 g/ha): 50
- Plant response rating Field bindweed (field bindweed; Rate 1120 g/ha): 50
- Plant response rating, Redroot pigweed (redroot pigweed; Rate 140 g/ha): 0
- Plant response rating, Redroot pigweed (redroot pigweed; Rate 280 g/ha): 0
- Plant response rating, Redroot pigweed (redroot pigweed; Rate 560 g/ha): 0
- Plant response rating, Redroot pigweed (redroot pigweed; Rate 1120 g/ha): 90
- Plant response rating H. beggarticks (hairy beggarticks; Rate 140 g/ha): 5
- Plant response rating H. beggarticks (hairy beggarticks; Rate 280 g/ha): 30
- Plant response rating H. beggarticks (hairy beggarticks; Rate 560 g/ha): 30
- Plant response rating H. beggarticks (hairy beggarticks; Rate 1120 g/ha): 50
- Plant response rating, Velvetleaf (velvetleaf; Rate 140 g/ha): 0
- Plant response rating, Velvetleaf (velvetleaf; Rate 280 g/ha): 0
- Plant response rating, Velvetleaf (velvetleaf; Rate 560 g/ha): 60
- Plant response rating, Velvetleaf (velvetleaf; Rate 1120 g/ha): 75
- Plant response rating Arrowleaf sida (arrowleaf sida; Rate 140 g/ha): 30
- Plant response rating Arrowleaf sida (arrowleaf sida; Rate 280 g/ha): 40
- Plant response rating Arrowleaf sida (arrowleaf sida; Rate 560 g/ha): 70
- Plant response rating Arrowleaf sida (arrowleaf sida; Rate 1120 g/ha): 95
- Plant response rating, Green foxtail (Green foxtail; Preemergence; Rate 16 g/ha; 0 to 100 scale, 0 no injury, 100 complete control): 80
- Plant response rating, Green foxtail (Green foxtail; Preemergence; Rate 32 g/ha; 0 to 100 scale, 0 no injury, 100 complete control): 98
- Plant response rating, Green foxtail (Green foxtail; Rate 16 g/ha; Preemergence; 0 to 100 scale, 0 no injury, 100 complete control): 80
- Plant response rating, Green foxtail (Green foxtail; Rate 32 g/ha; Preemergence; 0 to 100 scale, 0 no injury, 100 complete control): 70
- Green foxtail plant response rating (Green foxtail; [2]): 100
- Plant response rating, Green foxtail (Green foxtail; [2]): 100
- Green foxtail plant response rating (Green foxtail; [3]): 100
- Plant response rating, Green foxtail (Green foxtail; [3]): 100
- Plant response rating Wild poinsettia (wild poinsettia; Rate 140 g/ha): 10
- Plant response rating Wild poinsettia (wild poinsettia; Rate 280 g/ha): 50
- Plant response rating Wild poinsettia (wild poinsettia; Rate 560 g/ha): 80
- Plant response rating Wild poinsettia (wild poinsettia; Rate 1120 g/ha): 95
